What was measured:
Assay in all cases: relative viability (nuclei count vs DMSO), 5 days (fraction); higher = more cells survive
[1] = compound: C1CNCCC1C2=CC(=NN2)C3=CC=NC=C3 + CCNC(=O)c1noc(-c2cc(C(C)C)c(O)cc2O)c1-c1ccc(CN2CCOCC2)cc1 [Luminespib] (partner 0.01 µM)
How it was run: (§1)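 After 5 days of treatment, lung cancer cells in 1536-well plates were fixed and stained in a single step (final 0.05% Triton X-100, 1% formaldehyde, 1 ug/ml Hoechst) and their nuclei counted on 4× images. Treatment had been applied by pin tool the day after seeding as one drug alone or as a fixed anchor-drug dose with five library-drug doses (not always all listed) in √10 steps. Relative viability is the nuclei count of treated wells divided by that of vehicle wells, and values are medians of duplicate plates.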

[2] = compound: C1CNCCC1C2=CC(=NN2)C3=CC=NC=C3 + CS(=O)(=O)CCNCc1ccc(-c2ccc3ncnc(Nc4ccc(OCc5cccc(F)c5)c(Cl)c4)c3c2)o1 [Lapatinib] (partner 2 µM)
How it was run: as §1

[3] = compound: C1CNCCC1C2=CC(=NN2)C3=CC=NC=C3 + NC(=O)Nc1cc(-c2cccc(F)c2)sc1C(=O)N[C@H]1CCCNC1 [AZD7762] (partner 0.2 µM)
How it was run: as §1

Tanzisertib + Pictilisib = compound: O[C@H]1CC[C@H](Nc2ncc3nc(Nc4c(F)cc(F)cc4F)n([C@H]4CCOC4)c3n2)CC1 [Tanzisertib] + CS(=O)(=O)N1CCN(Cc2cc3nc(-c4cccc5[nH]ncc45)nc(N4CCOCC4)c3s2)CC1 [Pictilisib] (partner 1 µM)
How it was run: as §1

Cell Line	relative viability ([1]; first compound 0.08 µM)	relative viability ([1]; first compound 2.53 µM)	relative viability ([1]; first compound 8 µM)	relative viability ([2]; first compound 0.08 µM)	relative viability ([2]; first compound 0.8 µM)	relative viability ([2]; first compound 2.53 µM)	relative viability ([2]; first compound 8 µM)	relative viability ([3]; first compound 0.08 µM)	relative viability ([3]; first compound 0.8 µM)	relative viability ([3]; first compound 2.53 µM)	relative viability ([3]; first compound 8 µM)	relative viability (Tanzisertib + Pictilisib; first compound 0.08 µM)	relative viability (Tanzisertib + Pictilisib; first compound 0.253 µM)	relative viability (Tanzisertib + Pictilisib; first compound 0.8 µM)	relative viability (Tanzisertib + Pictilisib; first compound 2.53 µM)	relative viability (Tanzisertib + Pictilisib; first compound 8 µM)	relative viability ([1]; first compound 0.8 µM)
NCI-H1755	0.301	0.417	0.64	1.03	0.973	1.07	1	0.473	0.448	0.419	0.561	0.47	0.456	0.433	0.429	0.331	
EPLC-272H	0.281	0.406	0.206	0.92	1	1.14	1.03	0.18	0.261	0.26	0.212	0.396	0.328	0.397	0.337	0.199	0.22
NCI-H1437	1.1	1.09	1.14	0.765	0.912	0.827	0.769	1.09	1.09	1.17	1.09	0.445	0.492	0.452	0.486	0.565	1.16
EKVX	0.855	0.987	0.8	0.211	0.184	0.208	0.208	0.754		0.704	0.701	0.425	0.392	0.405	0.42	0.329	0.609
NCI-H1651	0.719	0.807	0.838	0.673	0.863	0.724	0.949	0.463	0.427	0.488	0.543	0.562	0.579	0.581	0.6	0.583	1.11
HCC-15	0.324	0.345	0.205	0.849	0.953	0.871	0.823	1.17	1.3	1.21	0.987	0.836	0.651	0.786	0.698	0.494	0.347
NCI-H23		0.213	0.211	1.15	1.34	1.49	1.22	0.329		0.326	0.308	0.488	0.483	0.459	0.499	0.365	0.212
NCI-H1792	0.43	0.636	0.483	0.893	0.851	0.913	0.788	0.616	0.675	0.632	0.717	0.307	0.261	0.29	0.231	0.243	0.414
NCI-H596	0.967	1.11	1.16	1.08	1.17	1.07	0.993	1.1	1.31	1.12	1.39	0.408	0.407	0.42	0.394	0.451	1.07

From the supplement of paper PMC10307832
